Entries after “also recorded” stand apart in the source; their conditions may differ. Where two headings read alike, the source gives them in different places.
Tests used:
p53 mutant = p53 mutant expression, western blotting in glioma C6; format: cell-based, rat; conditions: 30 and 60 μM, FIG. 8
HaCat I5 cells = assay: DNA fragmentation, flow cytometry, HaCat I5; format: cell-based, human; conditions: basal 10.23%
Procedure: (§1) DNA fragmentation was determined by flow cytometric analysis of propidium iodide-stained cells according to the method of Vindelov et al Vindelov, L. L., et al. Cytometry.

HaCat keratinocytes = assay: keratinocyte viability, Neutral red, HaCat; format: cell-based, human; conditions: for cell viability HaCat (in words): 5-100 μM, 24 hr, Neutral red, FIG. 13A, 15A; for IC50: Homo sapiens, HaCaT
Procedure: (§2) The drugs were administered at concentrations within the range of 5-100 μM and cell viability was measured 24 hr post-administration by Neutral red staining. The efficiency of the agents against viability of the cell lines was evaluated also by comparison with two commonly used anticancer agents (Doxorubicin and 5-fluorouracil (5-FU)) at equimolar concentrations.

Melanoma B16 cells [1] = system: Melanoma B16 cells
Procedure: Animals were divided into three groups:
1. Controls B16 with no therapy;
Water consumption was registered daily, and calculation of dose was performed according to the mean consumed water. Body weight was registered 3 time/week.

HaCat I5 keratinocytes = assay: keratinocyte viability, Neutral red, HaCat I5; format: cell-based, human; conditions: for cell viability HaCat I5 (in words): 5-100 μM, 24 hr, Neutral red, FIG. 13B, 15B; for IC50: Homo sapiens, HaCaT
Procedure: as §2

B16 melanoma = conditions: for mean number of metastases: controls 53.8+; for mean lungs weight: day 27, controls 685; for mice with confluent lungs: controls 6/7
Procedure: Female C57 mice aged 5-7 weeks were used, animals were divided into 3 treatment groups:
1. Controls: B16 inoculated vehicle treated;
Half of the animals were sacrificed after 21 days and half after 27 days. Lungs weight and number of metastases were recorded.

HaCat cells = assay: DNA fragmentation, flow cytometry, HaCat; format: cell-based, human; conditions: basal 29%
Procedure: as §1

[2] = system: mouse Lewis lung carcinoma (3LL); assay: in vivo effect on Lewis lung carcinoma (3LL) in mice; conditions: 3LL inoculated C57 mice, i.p. daily, thioridazine 15 mg/kg, others 30 mg/kg; for lungs weight / tumor size compared to control group: FIG. 5
Procedure: Female C57 black mice aged 4 weeks were used in order to evaluate the in vivo effect of cyclic psychotropic agents on tumor cells. In particular, animals were divided into 5 groups (6-8 mice each). Animals were inoculated with mouse Lewis lung carcinoma (3LL, 0.5 million each) by i.v. injection to the tail vein and then treated by i.p. injection daily for 3 weeks with the following different agents
(5) Paroxetine (30 mg/kg).
During the treatment period animals were inspected daily and their body weight registered twice a week. […] After the four weeks of treatment the mice were sacrificed and their lungs dissected and weighted.

B16 melanoma cells [3] = format: in vivo
Procedure: Male C57 black mice aged 5-7 weeks were used. Animals were inoculated with B16 melanoma cells by iv. injection (200,000 cells/mouse) to the tail vein. […]. Body weight was recorded three times weekly during the experiment and survival was registered. Animals were sacrificed 24 days after cell inoculation, and lungs were dissected and weighted.

mouse melanoma (B-16) = assay: cell viability, melanoma B16; format: cell-based
Procedure: (§3) Cyclic antidepressants at varying concentrations (between 10PM and 100 μM) was applied to neuroblastoma SH-SY5T, 3LL lung carcinoma, prostate (LN-CapAp), melanoma B16, and cell viability was determined as described above.

different cell-lines = assay: mean IC50 over cell lines and therapeutic index
[4] = system: doxorubicin resistant neuroblastoma cells (SH-SY5T); assay: sensitization to doxorubicin, doxorubicin resistant neuroblastoma SH-SY5T; format: cell-based, human; conditions: dose dependant, FIG. 6E, 6F
MDR B16 melanoma = assay: sensitization to doxorubicin, MDR B16 melanoma; format: cell-based, mouse; conditions: dose dependant, FIG. 6C
B16 melanoma cells [5] = assay: sensitization to doxorubicin, B16 melanoma cells; format: cell-based, mouse; conditions: clomipramine 10, […], 20 μM with doxorubicin 1, 2.5, 5 μM; FIG. 6B
Melanoma B16 cells [6] = system: Melanoma B16 cells; remark: listed apart in the source
Procedure: Mice C57 black females ages 5-7 weeks were used. Mice were inoculated with Melanoma B16 cells and divided randomly (7-8/cage). Animals were divided into three groups:
1. Control-B16 cells with no therapy;
2. Treatment with doxorubicin 4 mg/kg i.p given once (3 days later).

[7] = system: human neuroblastoma (SH-SY5T); assay: cell viability, neuroblastoma SH-SY5T; format: cell-based; conditions: Homo sapiens
Procedure: The effect of paroxetine on primary tissue cultures was also evaluated. […] The viability of the cells after treatment with paroxetine was determined by neutral red (NR) technology 24 hr. post treatment.
as §3

rat glioblastoma (C6) = assay: cell viability, glioma C6; format: cell-based; conditions: for IC50: Table 1A
[8] = system: human neuroblastoma (SK-N-SH); assay: cell viability (neutral red, Almar Blue, Hoechst dye), neuroblastoma SK-N-SH; format: cell-based
[9] = system: mouse embryo whole brain culture; assay: primary tissue culture, whole brain; format: cell-based; conditions: read-out: IC50 whole brain tissue
[10] = system: human prostate (LN-CapAp); assay: cell viability, prostate LN-Cap; format: cell-based; conditions: for inhibition of cell proliferation, LN-Cap (in words): 1 μM-100 μM, androgen dependent, FIG. 2A; for IC50: Table 1A, read-out: Viability IC50 Prostate LN-Cap
Procedure: The effect of trifluoperazine and flupentixol was studied in two cell-lines of human prostate cancer: androgen dependent (LN-Cap) and androgen independent (PC-3).
as §3

[11] = system: human prostate cancer PC-3; assay: cell viability, prostate PC-3; format: cell-based; conditions: for inhibition of cell proliferation, PC-3 (in words): 1 μM-100 μM, androgen independent, FIG. 2B; for IC50: Table 1A, read-out: Viability IC50 Prostate PC3
mouse lung sarcoma (3LL) = assay: cell viability, lung 3LL; format: cell-based; conditions: for IC50: Mus musculus, Table 1B, read-out: Cell viability IC50 Lungs Sarcoma 3LL
Procedure: In another experiment the effect of clotiapine at the same concentrations on the viability of mouse lung carcinoma (3LL) cells was determined.
as §3

[12] = Mus musculus, Table 1B, read-out: Cell viability IC50 Melanoma 16B
[13] = Mus musculus, Table 1A, read-out: Viability IC50 Melanoma B16
[14] = primary culture, data not shown

CSc1ccc2c(c1)N(CCC1CCCCN1C)c1ccccc1S2 (stereo not shown) [Thioridazine]
mean decrease in expression of p53 mutant (p53 mutant): 75%
apoptosis (DNA fragmentation) (HaCat I5 cells; 25 μM): 74.5%
apoptosis (DNA fragmentation) (HaCat I5 cells; 50 μM): 76.6%
cell viability HaCat (in words) (HaCat keratinocytes): effective in reducing cell viability; also recorded: responded
mice with big or conglomerate metastases (Melanoma B16 cells [1]; 20-30 mg/kg per day, after 24 days, same rate as controls): 1/7
animals with confluent metastases (Melanoma B16 cells [1]; 27 and 30 days, controls 6/11): 0/21
big or confluent metastases (Melanoma B16 cells [1]; 30-40 mg/kg per day, after 24 days): No big or confluent metastases were found
spontaneous death during experiment (Melanoma B16 cells [1]; controls 5/18): 2/36
body weight vs healthy and B16 controls (Melanoma B16 cells [1]; in drinking water): No difference
cell viability HaCat I5 (in words) (HaCat I5 keratinocytes): effective in reducing cell viability; also recorded: responded
mean number of metastases (B16 melanoma; 10 mg/kg i.p. x3/week, after 21 days): 46.1
mean lungs weight (B16 melanoma; 10 mg/kg): 520 mg
mice with confluent lungs (B16 melanoma; 10 mg/kg): 6/7
mean number of metastases (B16 melanoma; […] mg/kg i.p. x3/week, after 21 days): 28.5
mean lungs weight (B16 melanoma; […] mg/kg): 335 mg
mice with confluent lungs (B16 melanoma; […] mg/kg): 2/7
lungs weight (B16 melanoma; after 21 days, vs controls): No difference
effective doses (B16 melanoma; parenteral route, B16 melanoma in mice): 15 to 20 mg/kg
toxic concentrations (B16 melanoma; parenteral route, mice): higher than 30 mg/kg
rate of DNA fragmentation (HaCat cells; 25 μM): 82.8%
rate of DNA fragmentation (HaCat cells; 50 μM): 89.3%
survival rate during four weeks of treatment [2]: 7/7
lungs weight / tumor size compared to control group [2]: effective in reducing tumor size
survival rate (B16 melanoma cells [3]; 2.5 mg/kg i.p. 3 times/week): 4/5
survival rate (B16 melanoma cells [3]; 5 mg/kg i.p. 3 times/week): 3/4
survival rate (B16 melanoma cells [3]; 10 mg/kg i.p. 3 times/week): 5/5
lungs weight (B16 melanoma cells [3]; 20 mg/kg compared to 2.5 mg/kg (p=0.05), 24 days after inoculation): significant decrease
survival rate (B16 melanoma cells [3]; 20 mg/kg i.p. 3 times/week): 5/5

CN(C)CCC=C1c2ccccc2CCc2ccccc21 [Amitriptiline]
IC50 (mouse melanoma (B-16); [12]): 64 µM
IC50 (different cell-lines; read-out: IC50 Mean +/− SD): 64 µM

CN(C)CCCN1c2ccccc2CCc2ccc(Cl)cc21 [Clomipramine]
potentiation of doxorubicin toxicity (in words) [4]: potentiate the toxicity of doxorubicin
cell viability in combination with doxorubicin (in words) (MDR B16 melanoma): significantly decreased
cell viability HaCat (in words) (HaCat keratinocytes): effective in reducing cell viability
cell viability HaCat I5 (in words) (HaCat I5 keratinocytes): effective in reducing cell viability
survival rate during four weeks of treatment [2]: 7/7
lungs weight / tumor size compared to control group [2]: effective in reducing tumor size
cell viability in combination with doxorubicin (B16 melanoma cells [5]): less than 15 % from control

COc1cccc2c1C(=O)c1c(O)c3c(c(O)c1C2=O)C[C@@](O)(C(=O)CO)C[C@@H]3O[C@H]1C[C@H](N)[C@H](O)[C@H](C)O1 [doxorubicin]
cell viability HaCat (in words) (HaCat keratinocytes): same equimolar IC50 levels as for thioridazine
cell viability HaCat I5 (in words) (HaCat I5 keratinocytes): only the HaCat (non tumorigenic) cells responded
Confluent lung metastases (number of mice) (Melanoma B16 cells [6]; Table 2, of 7 total): 3
Early death (number of mice) (Melanoma B16 cells [6]; Table 2, of 7 total): 2
Non-confluent lung metastases (number of mice) (Melanoma B16 cells [6]; Table 2, of 7 total): 2
number of animals presenting non confluent lungs (Melanoma B16 cells [6]; after 21 days, B16 control 0/7): 2/7
lungs weight (Melanoma B16 cells [6]; after 21 days, B16 controls 770+/−95): 538 ± 137 mg
survival / animals died (Melanoma B16 cells [6]; doxorubicin 4 mg/kg i.p. once, thioridazine 25-35 mg/kg/day via drinking water): 2/7

CNCCC(Oc1ccc(C(F)(F)F)cc1)c1ccccc1 (stereo not shown) [Fluoxetine]
potentiation of doxorubicin toxicity (in words) [4]: potentiate the toxicity of doxorubicin
cell viability HaCat (in words) (HaCat keratinocytes): effective in reducing cell viability
cell viability HaCat I5 (in words) (HaCat I5 keratinocytes): effective in reducing cell viability
survival rate during four weeks of treatment [2]: 5/7
lungs weight / tumor size compared to control group [2]: effective in reducing tumor size

CN(C)CCCN1c2ccccc2Sc2ccc(Cl)cc21 [Chlorpromazine]
IC50 ([7]; Table 1A, read-out: Viability IC50 Neuroblastoma SH-SY5T): 15 µM
IC50 (mouse melanoma (B-16); [13]): 46 µM
IC50 (rat glioblastoma (C6); Rattus norvegicus): 22 µM
IC50 (different cell-lines; read-out: IC50 Mean ± SD): 45.7 ± 33.3 µM
IC50 ([8]; Homo sapiens, SK-N-SH, Table 1A): 100 µM

CCN1CCCC1CNC(=O)c1cc(S(N)(=O)=O)ccc1OC (stereo not shown) [Sulpiride]
IC50 [9, 14]: > 200 µM
Viability IC50 Prostate LN-CapAp ([10]; Table 1C): Non Toxic
Viability IC50 Glioma C6 (rat glioblastoma (C6); Table 1C): Non Toxic
Viability IC50 Neuroblastoma SK-N-SH ([8]; Table 1C): Non Toxic

CN1CCN(CCCN2c3ccccc3Sc3ccc(C(F)(F)F)cc32)CC1 [Trifluoperazine]
inhibition of cell proliferation, PC-3 (in words) [11]: effective in inhibition of cell proliferation
IC50 ([11]; Homo sapiens): 19 µM
inhibition of cell proliferation, LN-Cap (in words) [10]: effective in inhibition of cell proliferation
IC50 ([10]; Homo sapiens, LNCaP): 18 µM
IC50 (mouse melanoma (B-16); [13]): 16 µM
IC50 (rat glioblastoma (C6); Rattus norvegicus): 14 µM
IC50 (different cell-lines; read-out: IC50 Mean ± SD): 16.7 ± 1.9 µM

O=C(CCCN1CCC(O)(c2ccc(Cl)cc2)CC1)c1ccc(F)cc1 [Haloperidol]
IC50 [9, 14]: > 200 µM

Cc1nc2n(c(=O)c1CCN1CCC(c3noc4cc(F)ccc34)CC1)CCCC2 [Risperidone]
IC50 [9]: > 200 µM

O=c1[nH]cc(F)c(=O)[nH]1 [5-FU, 5-fluorouracil]
cell viability HaCat (in words) (HaCat keratinocytes): resistant
cell viability HaCat I5 (in words) (HaCat I5 keratinocytes): resistant

CN(C)CCCN1c2ccccc2CCc2ccccc21 [Imipramine]
IC50 ([7]; Table 1B, read-out: Cell viability IC50 Neuroblastoma SH-SY5T): 69 µM
IC50 (mouse lung sarcoma (3LL)): 12 µM
IC50 (different cell-lines; read-out: IC50 Mean +/− SD): 38.5 µM

CN1CCN(C2=Nc3ccccc3Sc3ccc(Cl)cc32)CC1 [Clotiapine]
IC50 (HaCat keratinocytes; mean of the determinations, read-out: IC50 HaCat ME): > 100 µM
IC50 (HaCat keratinocytes; single determinations, read-out: IC50 HaCat): > 100 µM
IC50 (HaCat I5 keratinocytes; mean of the determinations, read-out: IC50 HaCat I5 ME): > 100 µM
IC50 (HaCat I5 keratinocytes; single determinations, read-out: IC50 HaCat I5): > 100 µM
IC50 (mouse melanoma (B-16); [12]): 45 µM
cell viability, 3LL lung carcinoma (in words) (mouse lung sarcoma (3LL); 10 μM-100 μM, FIG. 3B, 4B): effective in reducing viability
IC50 (mouse lung sarcoma (3LL)): 40 µM

OCCN1CCN(CC/C=C2/c3ccccc3Sc3ccc(C(F)(F)F)cc32)CC1 [Flupentixiol]
inhibition of cell proliferation, PC-3 (in words) [11]: effective in inhibition of cell proliferation
IC50 [11]: 18 µM
inhibition of cell proliferation, LN-Cap (in words) [10]: effective in inhibition of cell proliferation
IC50 [10]: 23 µM
IC50 (mouse melanoma (B-16); Table 1A, read-out: Viability IC50 Melanoma B16): 18 µM
IC50 (rat glioblastoma (C6)): 14 µM
IC50 (different cell-lines; read-out: IC50 Mean ± SD, Table 1A, mean over the cell lines): 18.2 ± 3.2 µM

CN1CCN(C2=Nc3cc(Cl)ccc3Nc3ccccc32)CC1 [Clozapine]
IC50 [9, 14]: > 200 µM

From patent US20040029860A1, “Anti-proliferative drugs” (priority 2000, published 2004)
